According to patent US20190352276A1, “INHIBITORS OF BRUTON'S TYROSINE KINASE” (Joint Stock Company "Biocad", priority 2016, published 2019):

Assay: Chemical stability in artificial gastric fluid (SGF without enzymes); further: time not given here
Settings: 10 μM in SGF without enzymes, pH=1.4, 37° C.

Compared with `C=CC(=O)N1CCC[C@@H](n2nc(-c3ccc(C(=O)Nc4cc(C(F)(F)F)ccn4)cc3)c3cncc(Cl)c32)C1` [BCD-BTK -210, (R)-4-(1-(1-acryloylpiperidin-3-yl)-7-chloro-1H-pyrazolo[4,3-c]pyridin-3-yl)-N-(4-(trifluoromethyl)pyridin-2-yl)benzamide], `C=CC(=O)N1CCC[C@@H](n2nc(-c3ccc(C(=O)Nc4cc(C(F)(F)F)ccn4)cc3)c3cncc(F)c32)C1` [BCD-BTK-245, (R)-4-(1-(1-acryloylpiperidin-3-yl)-7-fluoro-1H-pyrazolo[4,3-c]pyridin-3-yl)-N-(4-(trifluoromethyl)pyridin-2-yl)benzamide] is higher in “Amount of substance in the sample in % (chemical stability)” value (from here on “Amount of substance in the sample in %”): 96.1% for the first, 100% for the second.

`C=CC(=O)N1CCC[C@@H](n2nc(-c3ccc(C(=O)Nc4cc(C(F)(F)CC)ccn4)cc3)c3cncc(Cl)c32)C1` [BCD-BTK -215, (R)-4-(1-(1-acryloylpiperidin-3-yl)-7-chloro-1H-pyrazolo[4,3-c]pyridin-3-yl)-N-(4-(1,1-difluoropropyl)pyridin-2-yl)benzamide] and `C=CC(=O)N1CCC[C@@H](n2nc(-c3ccc(C(=O)Nc4cc(C(F)(F)CC)ccn4)cc3)c3cncc(F)c32)C1` [BCD-BTK -214, (R)-4-(1-(1-acryloylpiperidin-3-yl)-7-fluoro-1H-pyrazolo[4,3-c]pyridin-3-yl)-N-(4-(1,1-difluoropropyl)pyridin-2-yl)benzamide] are the same in “Amount of substance in the sample in %” value: 100% for the first, 100% for the second.

`C=CC(=O)N1CCC[C@@H](n2nc(-c3ccc(C(=O)Nc4ccccn4)cc3)c3cncc(Cl)c32)C1` [BCD-BTK -201] and `C=CC(=O)N1CC[C@@H](n2nc(-c3ccc(C(=O)Nc4ccccn4)cc3)c3cncc(Cl)c32)C1` [BCD-BTK-275, (R)-4-(1-(1-acryloylpyrrolidin-3-yl)-7-chloro-1H-pyrazolo[4,3-c]pyridin-3-yl)-N-(pyridin-2-yl)benzamide] are the same in “Amount of substance in the sample in %” value: 100% for the first, 100% for the second.

`CC#CC(=O)N1CC[C@H](n2nc(-c3ccc(C(=O)Nc4ccccn4)cc3)c3cncc(Cl)c32)C1` [BCD-BTK-271, (S)-4-(1-(1-(but-2-ynoyl)pyrrolidin-3-yl)-7-chloro-1H-pyrazolo[4,3-c]pyridin-3-yl)-N-(pyridin-2-yl)benzamide] and `CC#CC(=O)N1CC[C@@H](Cn2nc(-c3ccc(C(=O)Nc4ccccn4)cc3)c3cncc(Cl)c32)C1` [BCD-BTK - 286, (R)-4-(1-((1-(but-2-ynoyl)pyrrolidin-3-yl)methyl)-7-chloro-1H-pyrazolo[4,3-c]pyridin-3-yl)-N-(pyridin-2-yl)benzamide] are the same in “Amount of substance in the sample in %” value: 100% for the first, 100% for the second.

`CC#CC(=O)N1CC(n2nc(-c3ccc(Oc4ccncc4)cc3)c3cncc(Cl)c32)C1` [BCD-BTK - 281, 1-(3-(7-chloro-3-(4-(pyridin-4-yloxy)phenyl)-1H-pyrazolo[4,3-c]pyridin-1-yl)azetidin-1-yl)but-2-yn-1-one] and `C=CC(=O)N1CC(n2nc(-c3ccc(Oc4ccncc4)cc3)c3cncc(Cl)c32)C1` [BCD-BTK - 282, 1-(3-(7-chloro-3-(4-(pyridin-4-yloxy)phenyl)-1H-pyrazolo[4,3-c]pyridin-1-yl)azetidin-1-yl)prop-2-en-1-one] are the same in “Amount of substance in the sample in %” value: 100% for the first, 100% for the second.

Compared with `C=CC(=O)N1CCC[C@@H](n2nc(-c3ccc(Oc4ccncc4C#N)cc3)c3cncc(C#N)c32)C1` [BCD-BTK -213, (R)-1-(1-acryloylpiperidin-3-yl)-3-(4-(3-cyanopyridin-4-yloxy)phenyl)-1H-pyrazolo[4,3-c]pyridine-7-carbonitrile], `C=CC(=O)N1CCC[C@@H](n2nc(-c3ccc(Oc4ccncc4C#N)cc3)c3cncc(Cl)c32)C1` [BCD-BTK -202, (R)-4-(4-(1-(1-acryloylpiperidin-3-yl)-7-chloro-1H-pyrazolo[4,3-c]pyridin-3-yl)phenoxy)nicotinonitrile] is lower in “Amount of substance in the sample in %” value: 97.4% for the first, 95.5% for the second.

`C=CC(=O)N1CCC[C@@H](n2nc(-c3ccc(-n4ccc(=O)c(C#N)c4)cc3)c3cncc(Cl)c32)C1` [BCD-BTK -208, (R)-1-(4-(1-(1-acryloylpiperidin-3-yl)-7-chloro-1H-pyrazolo[4,3-c]pyridin-3-yl)phenyl)-4-oxo-1,4-dihydropyridine-3-carbonitrile] and `C=CC(=O)N1CCC[C@@H](n2nc(-c3ccc(C(=O)Nc4ccc(F)cn4)cc3)c3cncc(Cl)c32)C1` [BCD-BTK -212, (R)-4-(1-(1-acryloylpiperidin-3-yl)-7-chloro-1H-pyrazolo[4,3-c]pyridin-3-yl)-N-(5-fluoropyridin-2-yl)benzamide] are the same in “Amount of substance in the sample in %” value: 100% for the first, 100% for the second.

`C=CC(=O)N1CCC[C@@H](n2nc(-c3ccc(Oc4ccncc4C(N)=O)cc3)c3cncc(Cl)c32)C1` [BCD-BTK -203, (R)-4-(4-(1-(1-acryloylpiperidin-3-yl)-7-chloro-1H-pyrazolo[4,3-c]pyridin-3-yl)phenoxy)nicotinamide] and `C=CC(=O)N1CCC[C@@H](n2nc(-c3ccc(Oc4ccncc4)cc3)c3cncc(Cl)c32)C1` [BCD-BTK - 125, (R)-1-(1-acryloylpiperidin-3-yl)-7-chloro-3-(4-(pyridin-4-yloxy)phenyl)-1H-pyrazolo[4,3-c]pyridine] are the same in “Amount of substance in the sample in %” value: 100% for the first, 100% for the second.

`C=CC(=O)N1CCC[C@@H](n2nc(-c3ccc(Oc4ccncc4)cc3)c3c(N)ncc(Cl)c32)C1` [BCD-BTK - 139, (R)-1-(1-acryloylpiperidin-3-yl)-7-chloro-3-(4-(pyridin-4-yloxy)phenyl)-1H-pyrazolo[4,3-c]pyridin-4-amine] and `C=CC(=O)N1CCC[C@@H](n2nc(-c3ccc(C(=O)Nc4cccc(F)n4)cc3)c3c(N)ncc(Cl)c32)C1` [BCD-BTK - 250, (R)-4-(1-(1-acryloylpiperidin-3-yl)-4-amino-7-chloro-1H-pyrazolo[4,3-c]pyridin-3-yl)-N-(6-fluoropyridin-2-yl)benzamide] are the same in “Amount of substance in the sample in %” value: 100% for the first, 100% for the second.

`C=CC(=O)N1CCC[C@@H](n2nc(-c3ccc(C(=O)Nc4cc(C(F)(F)CCC)ccn4)cc3)c3c(N)ncc(Cl)c32)C1` [BCD-BTK - 254, (R)-4-(1-(1-acryloylpiperidin-3-yl)-4-amino-7-chloro-1H-pyrazolo[4,3-c]pyridin-3-yl)-N-(4-(1,1-difluorobutyl)pyridin-2-yl)benzamide] and `C=CC(=O)N1CCC[C@@H](n2nc(-c3ccc(C(=O)Nc4cc(C(F)(F)F)ccn4)cc3)c3c(N)ncc(Cl)c32)C1` [BCD-BTK - 251, (R)-4-(1-(1-acryloylpiperidin-3-yl)-4-amino-7-chloro-1H-pyrazolo[4,3-c]pyridin-3-yl)-N-(4-(trifluoromethyl)pyridin-2-yl)benzamide] are the same in “Amount of substance in the sample in %” value: 100% for the first, 100% for the second.

First: CC#CC(=O)N1CCC[C@@H](n2nc(-c3ccc(C(=O)Nc4ccccn4)cc3)c3c(N)ncc(Cl)c32)C1 [BCD-BTK - 295, (R)-4-(4-amino-1-(1-(but-2-ynoyl)piperidin-3-yl)-7-chloro-1H-pyrazolo[4,3-c]pyridin-3-yl)-N-(pyridin-2-yl)benzamide]
Second: C=CC(=O)N1CCC[C@@H](n2nc(-c3ccc(C(=O)Nc4cccc(F)n4)cc3)c3cncc(Cl)c32)C1 [BCD-BTK-225, (R)-4-(1-(1-acryloylpiperidin-3-yl)-7-chloro-1H-pyrazolo[4,3-c]pyridin-3-yl)-N-(6-fluoropyridin-2-yl)benzamide]
The “Amount of substance in the sample in %” value of the first is lower: 89.5% for the first, 100% for the second.

`C=CC(=O)N1CCC[C@@H](n2nc(-c3ccc(C(=O)Nc4cccc(F)n4)cc3)c3cncc(F)c32)C1` [BCD-BTK - 248, (R)-4-(1-(1-acryloylpiperidin-3-yl)-7-fluoro-1H-pyrazolo[4,3-c]pyridin-3-yl)-N-(6-fluoropyridin-2-yl)benzamide] and `C=CC(=O)N1CCC[C@@H](n2nc(-c3ccc(C(=O)Nc4ncccc4F)cc3)c3cncc(F)c32)C1` [BCD-BTK - 249, (R)-4-(1-(1-acryloylpiperidin-3-yl)-7-fluoro-1H-pyrazolo[4,3-c]pyridin-3-yl)-N-(3-fluoropyridin-2-yl)benzamide] are the same in “Amount of substance in the sample in %” value: 100% for the first, 100% for the second.

Compared with `C=CC(=O)N1CCC[C@@H](n2nc(-c3ccc(Oc4cccnc4C#N)cc3)c3cncc(C#N)c32)C1` [BCD-BTK -216, (R)-1-(1-acryloylpiperidin-3-yl)-3-(4-(2-cyanopyridin-3-yloxy)phenyl)-1H-pyrazolo[4,3-c]pyridine-7-carbonitrile], `C=CC(=O)N1CCC[C@@H](n2nc(-c3ccc(Oc4ccncc4C#N)cc3)c3cncc(F)c32)C1` [BCD-BTK -217, (R)-4-(4-(1-(1-acryloylpiperidin-3-yl)-7-fluoro-1H-pyrazolo[4,3-c]pyridin-3-yl)phenoxy)nicotinonitrile] is lower in “Amount of substance in the sample in %” value: 96.3% for the first, 95.3% for the second.

`C=CC(=O)N1CCC[C@@H](n2nc(-c3ccc(Oc4cccnc4C(N)=O)cc3)c3cncc(F)c32)C1` [BCD-BTK - 255, (R)-3-(4-(1-(1-acryloylpiperidin-3-yl)-7-fluoro-1H-pyrazolo[4,3-c]pyridin-3-yl)phenoxy)picolinamide] and `C=CC(=O)N1CC(Cn2nc(-c3ccc(C(=O)Nc4ccccn4)cc3)c3cncc(Cl)c32)C1` [BCD-BTK-276, 4-(7-chloro-1-{[1-(prop-2-enoyl)azetidin-3-yl]methyl}-1H-pyrazolo[4,3-c]pyridin-3-yl)-N-(pyridin-2-yl)benzamide] are the same in “Amount of substance in the sample in %” value: 100% for the first, 100% for the second.
